# Test results reported in patent publication US11696901B2 (SHAOGUAN UNIVERSITY, priority 2020, dated 2023).
# Where “and” joins values, the source holds several entries; their conditions need not be identical. Identical values can stand only once.
# Key:
# [1] = Precipitation rate after centrifugation; type: physicochemical; conditions: comparative experiment; curcumin concentration 6.0/5.8/4.8/4.0 mg/mL, pH 7/7/7/6 in row order; beverage = A3B2C2D2
# Method: The weight of the centrifuge tube and the total weight of the sample and the centrifuge tube were measured, and then the sample was centrifuged at 4,000 r/min for 15 min. The supernatant was discarded and the total weight of the centrifuge tube and the precipitate was accurately measured.
# The precipitation rate was calculated as follows: precipitation rate=precipitate weight/sample weightx 100%.
# [2] = Stability of absorbance (A/A0 after centrifugation); type: physicochemical; conditions: comparative experiment; curcumin concentration 6.0/5.8/4.8/4.0 mg/mL, pH 7/7/7/6 in row order; beverage = A3B2C2D2
# Method: The absorbance (A0) of the sample before the centrifugation and the absorbance (A) of the sample after the centrifugation were measured at the maximum absorption wavelength, and the stability of absorbance was represented by A/A0.
# [3] = Optimal concentration of stabilizer Zn^2+, absorbance of curcumin solution at 425 nm; type: physicochemical; conditions: after 60 h, room temperature
# Method: A series of Zn^2+ stock solutions were prepared as follows. 0.03 g, 0.06 g, 0.09 g, 0.12 g, 0.15 g and 0.18 g of zinc sulfate were dissolved with 100 mL of distilled water and stirred uniformly to prepare a series of zinc sulfate stock solutions with a concentration of 0.3 g/L, 0.6 g/L, 0.9 g/L, 1.2 g/L, 1.5 g/L and 1.8 g/L, respectively, which were stored for use.
# The 7 vessels were placed at room temperature and measured for the absorbance at 425 nm using a microplate reader every other 12 h, where each measurement was performed in triplicate.
# [4] = ABTS^+⋅ scavenging activity; type: biochemical; conditions: positive control
# Method: (§1) The beverage samples were prepared as follows.
# 2 mg, 4 mg, 6 mg, 8 mg and 10 mg of Vc were diluted with distilled water to 100 mL, respectively, that was, the final concentrations of the Vc were 20 μg/mL, 40 μg/mL, 60 μg/mL, 80 μg/mL and […], respectively.
# 5 mL of a K2S2O8 solution (2.6 mmol/L) and 10 mL of an […] (7.4 mmol/L) were mixed uniformly and reacted in dark for 12 h. The ABTS^+⋅ solution was diluted with phosphate buffer solution (pH=6.6) to an absorbance of 0.70±0.02 to produce a working solution. […] The reaction mixture was mixed uniformly, reacted in dark for 6 min and measured at 734 nm for the absorbance A1, where a well containing the sample and 160 μL of absolute ethanol was used as control; a well containing 40 μL of distilled water and 160 μL of the ABTS^+⋅ solution was used as blank group; and Vc was used as positive control.
# (§2) The scavenging rate was calculated as follows: scavenging rate %=[1−(A1−A2)/A0]×100%,
# [5] = DPPH⋅ scavenging activity; type: biochemical; conditions: positive control
# Method: Moreover, it can also be acidified with citric acid to pH 4.6 and then pasteurized at 80° C. for 20 min; or filtered with a 0.22 μm organic filter for cold sterilization. The unsterilized beverage was used as control. The scavenging capacity toward DPPH free radical was used as an index to evaluate the sterilization effect, where the ascorbic acid (Vc) was used as positive control.
# as §1
# 2 mg, 4 mg, 6 mg, 8 mg and 10 mg of Vc were diluted with distilled water to 100 mL, respectively, that was, the final concentrations of the Vc were 20 μg/mL, 40 μg/mL, 60 μg/mL, 80 μg/mL and 100 μg/mL, respectively.
# The reaction mixture was reacted in dark for 30 min, and then measured at 517 nm for the absorbance (A1), where a well containing the sample and 100 μL of absolute ethanol was used as control; a well containing 100 μL of distilled water and 100 μL of the DPPH solution was used as blank group; and Vc was used as positive control.
# as §2
# [6] = Table 18 (starch sodium octenyl succinate series)
# [7] = Table 19, one value beside each beverage (nanoparticle powder 0.2-1.0%)
# [8] = Table 21, one value beside each test number
# [9] = verification experiment, mean of three repeats
# [10] = verification experiment, single repeats 1-3
SMILES,Precipitation rate after centrifugation (%) [1],Coefficient of absorbanee stability [2],absorbance of curcumin solution at 425 nm over time ([3]; Zn^2+ concentration 0.3 g/L),absorbance of curcumin solution at 425 nm over time ([3]; Zn^2+ concentration 0.36 g/L),ABTS^+ · scavenging rate (%) Vc ([4]; Table 16 (CMC-Na series)),ABTS^+ · scavenging rate (%) Vc ([4]; Table 17 (xanthan gum series)),"ABTS^+ · scavenging rate (%) Vc [4, 6]","Rate of ABTS^+ · radical clearance (%) Vc [4, 7]","ABTS^+ · scavenging rate (%) Vc [4, 8]","ABTS^+ · scavenging rate (%) Vc [4, 9]","ABTS^+ · scavenging rate (%) Vc [4, 10]",DPPH · scavenging rate (%) Vc ([5]; Table 16 (CMC-Na series)),DPPH · scavenging rate (%) Vc ([5]; Table 17 (xanthan gum series)),"DPPH · scavenging rate (%) Vc [5, 6]","Rate of DPPH · radical clearance (%) Vc [5, 7]","DPPH · scavenging rate (%) Vc [5, 8]","DPPH · scavenging rate (%) Vc [5, 9]","DPPH · scavenging rate (%) Vc [5, 10]"
"COc1cc(/C=C/C(=O)CC(=O)/C=C/c2ccc(O)c(OC)c2)ccc1O [Pure curcumin, Curcumin]",0.550 ± 0.100%,0.286 ± 0.180,smallest slope and relatively stable absorbance,declining tendency,,,,,,,,,,,,,,
"O=C1O[C@H]([C@@H](O)CO)C(O)=C1O [Vc, ascorbic acid]",,,,,90.38%,90.38%,90.38%,92.44% and 93.69% and 94.53% and 88.12% and 90.38%,96.13% and 92.88% and 95.10%,95.34 ± 0.00%,95.34%,92.51%,92.51%,92.51%,93.15% and 93.62% and 93.67% and 91.72% and 92.51%,95.72% and 93.44% and 94.65%,94.5 ± 0.00%,95.59% and 94.59%
